Experimental data: ChEMBL document CHEMBL4004883, “Biologically active perspective synthesis of heteroannulated 8-nitroquinolines with green chemistry approach” (Bioorg Med Chem Lett, 2017)
Converted amounts (≈) assume the structure as drawn. The source made the active and inactive calls. No cut-off for these calls is given here.

Experiments:
Escherichia coli [1] = experiment: Antibacterial activity against Escherichia coli MTCC 1652 incubated for 24 hrs under dark condition by microwell dilution method; format: functional; conditions: MTCC 1652, 24 h
Bacillus subtilis [2] = experiment: Antibacterial activity against Bacillus subtilis MTCC 121 incubated for 24 hrs under dark condition by microwell dilution method; format: functional; conditions: MTCC 121, 24 h
A549 [3] = experiment: Cytotoxicity against human A549 cells assessed as decrease in cell viability after 48 hrs by MTT assay; format: functional, cell-based; conditions: A549, 48 h
Bacillus subtilis [4] = experiment: Antibacterial activity against Bacillus subtilis MTCC 121 at 100 ug incubated for 24 hrs under dark condition by agar well diffusion method; format: functional; conditions: MTCC 121, 24 h, read-out: IZ
MCF7 [5] = experiment: Cytotoxicity against human MCF7 cells assessed as decrease in cell viability after 48 hrs by MTT assay; format: functional, cell-based; conditions: MCF7, 48 h
Staphylococcus aureus [6] = experiment: Antibacterial activity against Staphylococcus aureus MTCC 96 incubated for 24 hrs under dark condition by microwell dilution method; format: functional; conditions: MTCC 96, 24 h
[7] = Antioxidant activity assessed as assessed as ferric ion reducing activity by measuring absorbance at 700 nm at 60 ug/ml after 20 mins by spectrophotometric method; format: functional
Pseudomonas aeruginosa [8] = experiment: Antibacterial activity against Pseudomonas aeruginosa MTCC 102 incubated for 24 hrs under dark condition by microwell dilution method; format: functional; conditions: MTCC 102, 24 h
Staphylococcus aureus [9] = experiment: Antibacterial activity against Staphylococcus aureus MTCC 96 at 100 ug incubated for 24 hrs under dark condition by agar well diffusion method; format: functional; conditions: MTCC 96, 24 h, read-out: IZ
[10] = Antioxidant activity assessed as total antioxidant capacity measured as ascorbic acid equivalents at 20 ug/ml after 90 mins by phosphomolybdenum method; format: functional
[11] = Antioxidant activity assessed as DPPH radical scavenging activity after 20 mins by UV/VIS Spectrophotometric method; format: functional
Pseudomonas aeruginosa [12] = experiment: Antibacterial activity against Pseudomonas aeruginosa MTCC 102 at 100 ug incubated for 24 hrs under dark condition by agar well diffusion method; format: functional; conditions: MTCC 102, 24 h, read-out: IZ
Escherichia coli [13] = experiment: Antibacterial activity against Escherichia coli MTCC 1652 at 100 ug incubated for 24 hrs under dark condition by agar well diffusion method; format: functional; conditions: MTCC 1652, 24 h, read-out: IZ
[14] = Antioxidant activity assessed as total antioxidant capacity measured as ascorbic acid equivalents at 60 ug/ml after 90 mins by phosphomolybdenum method; format: functional
[15] = Antioxidant activity assessed as assessed as ferric ion reducing activity by measuring absorbance at 700 nm at 20 ug/ml after 20 mins by spectrophotometric method; format: functional
[16] = Antioxidant activity assessed as total antioxidant capacity measured as ascorbic acid equivalents at 100 ug/ml after 90 mins by phosphomolybdenum method; format: functional
[17] = Antioxidant activity assessed as assessed as ferric ion reducing activity by measuring absorbance at 700 nm at 100 ug/ml after 20 mins by spectrophotometric method; format: functional
MCF7 [18] = experiment: Induction of apoptosis in human MCF7 cells assessed as chromatin condensation at IC50 by DAPI staining-based fluorescence microscopic method; format: functional, cell-based
MCF7 [19] = experiment: Induction of apoptosis in human MCF7 cells assessed as nuclear fragmentation at IC50 by DAPI staining-based fluorescence microscopic method; format: functional, cell-based
A549 [20] = experiment: Induction of apoptosis in human A549 cells assessed as cell shrinkage at IC50 after 48 hrs by acridine orange/ ethidium bromide staining-based fluorescence microscopic method; format: functional
MCF7 [21] = experiment: Induction of apoptosis in human MCF7 cells assessed as cell blebbing at IC50 after 48 hrs by acridine orange/ ethidium bromide staining-based fluorescence microscopic method; format: functional
A549 [22] = experiment: Induction of apoptosis in human A549 cells assessed as chromatin condensation at IC50 by DAPI staining-based fluorescence microscopic method; format: functional, cell-based
A549 [23] = experiment: Induction of apoptosis in human A549 cells assessed as nuclear fragmentation at IC50 by DAPI staining-based fluorescence microscopic method; format: functional, cell-based
A549 [24] = experiment: Induction of apoptosis in human A549 cells assessed as cell blebbing at IC50 after 48 hrs by acridine orange/ ethidium bromide staining-based fluorescence microscopic method; format: functional
MCF7 [25] = experiment: Induction of apoptosis in human MCF7 cells assessed as cell shrinkage at IC50 after 48 hrs by acridine orange/ ethidium bromide staining-based fluorescence microscopic method; format: functional

| SMILES | MIC (Escherichia coli [1]) [µg/mL] | MIC (Bacillus subtilis [2]) [µg/mL] | MIC (Staphylococcus aureus [6]) [µg/mL] | MIC (Pseudomonas aeruginosa [8]) [µg/mL] | IC50 [11] [µg/mL] | IC50 (A549 [3]) [µM] | zone of inhibition at 100 µg/disc (Bacillus subtilis [4]) [mm] | IC50 (MCF7 [5]) [µM] | OD [7] | zone of inhibition at 100 µg/disc (Staphylococcus aureus [9]) [mm] | Activity [10] [µgequiv/ml] | zone of inhibition at 100 µg/disc (Pseudomonas aeruginosa [12]) [mm] | zone of inhibition at 100 µg/disc (Escherichia coli [13]) [mm] | Activity [14] [µgequiv/ml] | OD [15] | Activity [16] [µgequiv/ml] | OD [17] | further results |
| --- | --- | --- | --- | --- | --- | --- | --- | --- | --- | --- | --- | --- | --- | --- | --- | --- | --- | --- |
| N#CC1=C(N)OC2=C(CNc3c2cccc3[N+](=O)[O-])C1c1ccc(Br)cc1 (stereo not given) | 25.5 (≈ 60 µM) | 12.5 (≈ 29.4 µM) | 10 (≈ 23.5 µM) | 37 (≈ 87 µM) | 125.08 (≈ 294 µM) | 34.8 | 20 | 24.7 | 0.095 | 20 | 1.5 | 20 | 18 | 2.98 | 0.071 | 5.67 | 0.134 |  |
| O=[N+]([O-])c1cc(Cl)cc2c1NCC1C2=NNC1c1ccc(F)cc1 (stereo not given) | 80.5 (≈ 232 µM) | 50 (≈ 144 µM) | 50 (≈ 144 µM) | 200 (≈ 577 µM) | 155.12 (≈ 447 µM) | 63.6 | 12 | 98.7 | 0.088 | 12 | 1.21 | 8 | 12 | 2.49 | 0.08 | 5.03 | 0.098 |  |
| COc1ccc(N2N=C3c4cc(Cl)cc([N+](=O)[O-])c4NCC3C2c2ccc(Cl)cc2)cc1 (stereo not given) | 80.5 (≈ 172 µM) | 50 (≈ 107 µM) | 50 (≈ 107 µM) | 100 (≈ 213 µM) | 151.83 (≈ 324 µM) | 32 | 14 | 25.8 | 0.171 | 13 | 1.86 | 13 | 12 | 4.43 | 0.1 | 8.36 | 0.253 |  |
| N#CC1=C(N)OC2=C(CNc3c2cccc3[N+](=O)[O-])C1c1cccs1 (stereo not given) | 17 (≈ 48.2 µM) | 5 (≈ 14.2 µM) | 5 (≈ 14.2 µM) | 37 (≈ 105 µM) | 194.81 (≈ 553 µM) | 15.4 | 29 | 14.3 | 0.118 | 23 | 2.19 | 20 | 22 | 5.72 | 0.098 | 11.8 | 0.134 | Activity (MCF7 [18]): Active; Activity (MCF7 [19]): Active; Activity (A549 [20]): Active; Activity (MCF7 [21]): Active; Activity (A549 [22]): Active; Activity (A549 [23]): Active; Activity (A549 [24]): Active; Activity (MCF7 [25]): Active |

More lines, main results first:

| MIC (Escherichia coli [1]) [µg/mL] | MIC (Bacillus subtilis [2]) [µg/mL] | MIC (Staphylococcus aureus [6]) [µg/mL] | MIC (Pseudomonas aeruginosa [8]) [µg/mL] | IC50 [11] [µg/mL] | SMILES | IC50 (A549 [3]) [µM] | zone of inhibition at 100 µg/disc (Bacillus subtilis [4]) [mm] | IC50 (MCF7 [5]) [µM] | OD [7] | zone of inhibition at 100 µg/disc (Staphylococcus aureus [9]) [mm] | Activity [10] [µgequiv/ml] | zone of inhibition at 100 µg/disc (Pseudomonas aeruginosa [12]) [mm] | zone of inhibition at 100 µg/disc (Escherichia coli [13]) [mm] | Activity [14] [µgequiv/ml] | OD [15] | Activity [16] [µgequiv/ml] | OD [17] | further results |
| --- | --- | --- | --- | --- | --- | --- | --- | --- | --- | --- | --- | --- | --- | --- | --- | --- | --- | --- |
| 34 (≈ 79 µM) | 12.5 (≈ 29 µM) | 12.5 (≈ 29 µM) | 55.5 (≈ 129 µM) | 169.91 (≈ 395 µM) | COc1ccc(C2C3CNc4c(cccc4[N+](=O)[O-])C3=NN2c2ccccc2)cc1OC (stereo not given) | 46.4 | 19 | 58.5 | 0.102 | 19 | 4.04 | 16 | 18 | 8.12 | 0.084 | 12.3 | 0.155 |  |
| 80.5 (≈ 209 µM) | 50 (≈ 130 µM) | 50 (≈ 130 µM) | 200 (≈ 520 µM) | 185.06 (≈ 481 µM) | Cc1ccc(C2C3CNc4c(cccc4[N+](=O)[O-])C3=NN2c2ccccc2)cc1 (stereo not given) | 45.8 | 12 | 72.8 | 0.096 | 12 | 3.33 | 8 | 10 | 5.23 | 0.082 | 10.2 | 0.145 |  |
